ChEMBL document CHEMBL5046266, “Synthesis and Evaluation of Structurally Diverse C-2-Substituted Thienopyrimidine-Based Inhibitors of the Human Geranylgeranyl Pyrophosphate Synthase” (J Med Chem, 2022)
pEC50, pIC50: −log10 of the molar value.

Tests used:
[1] = biological target: T1, Farnesyl pyrophosphate synthase (Homo sapiens) (UniProt P14324); assay: Inhibition of human FPPS expressed in Escherichia coli BL21 (DE3) at 1 uM preincubated for 10 mins in presence compound relative to control
T1 sequence (whole entry): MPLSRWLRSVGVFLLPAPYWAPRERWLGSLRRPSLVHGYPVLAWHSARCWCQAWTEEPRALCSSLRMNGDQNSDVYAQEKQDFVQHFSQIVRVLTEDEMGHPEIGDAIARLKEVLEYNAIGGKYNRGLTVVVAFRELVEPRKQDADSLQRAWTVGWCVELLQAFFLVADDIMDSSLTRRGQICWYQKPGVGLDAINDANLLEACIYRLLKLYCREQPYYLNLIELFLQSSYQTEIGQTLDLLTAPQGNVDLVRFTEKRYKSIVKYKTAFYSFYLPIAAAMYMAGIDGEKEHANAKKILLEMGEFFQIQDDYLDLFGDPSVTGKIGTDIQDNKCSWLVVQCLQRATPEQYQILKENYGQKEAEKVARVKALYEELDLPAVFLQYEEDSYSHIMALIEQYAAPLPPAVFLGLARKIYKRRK

[2] = biological target: T2, Geranylgeranyl pyrophosphate synthase (Homo sapiens, UniProt O95749)
T2 sequence (O95749 whole entry): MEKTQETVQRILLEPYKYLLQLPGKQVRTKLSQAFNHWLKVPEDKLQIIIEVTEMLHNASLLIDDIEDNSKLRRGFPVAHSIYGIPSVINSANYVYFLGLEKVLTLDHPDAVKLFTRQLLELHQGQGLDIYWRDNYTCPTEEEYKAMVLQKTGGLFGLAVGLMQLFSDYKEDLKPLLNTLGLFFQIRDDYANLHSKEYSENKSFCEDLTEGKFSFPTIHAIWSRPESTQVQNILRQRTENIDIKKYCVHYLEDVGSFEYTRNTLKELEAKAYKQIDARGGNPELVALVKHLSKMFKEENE

RPMI-8226 = assay: cells; conditions: Homo sapiens, RPMI-8226, 72 h
[3] = biological target: T3, Farnesyl pyrophosphate synthase (Homo sapiens, UniProt P14324)
T3 sequence (P14324 whole entry): T1 sequence (whole entry)

in vitro = conditions: human, bone marrow mononuclear cells

SMILES | inhibition [1] [%] | pIC50 [2] | pEC50 (RPMI-8226) | pIC50 [3] | viability at 72 h, 0.05 µM (in vitro) [%]
Cc1ccc(C(=O)Nc2cccc(-c3nc(NC(P(=O)(O)O)P(=O)(O)O)c4ccsc4n3)c2)cc1F | 35 | 7.68 | 6.54 | – | –
O=C(Nc1cccc(-c2nc(NC(P(=O)(O)O)P(=O)(O)O)c3ccsc3n2)c1)c1ccc(F)cc1 | 30 | 7.60 | – | – | –
O=C(Nc1cccc(-c2nc(NC(P(=O)(O)O)P(=O)(O)O)c3ccsc3n2)c1)c1ccc(C(F)(F)F)cn1 | 60 | 7.28 | 4.67 | – | –
O=C(Nc1ccc(F)cc1)Nc1cccc(-c2nc(NC(P(=O)(O)O)P(=O)(O)O)c3ccsc3n2)c1 | 90 | 7.39 | 5.39 | – | –
CC(C)O[C@@H](C(=O)Nc1cccc(-c2nc(NC(P(=O)(O)O)P(=O)(O)O)c3ccsc3n2)c1)c1ccccc1 | – | 7.64 | 6.04 | – | –
CC(C)O[C@H](C(=O)Nc1cccc(-c2nc(NC(P(=O)(O)O)P(=O)(O)O)c3ccsc3n2)c1)c1ccccc1 | 35 | 7.68 | 6.87 | – | –
O=C(Cc1cccnc1)Nc1cccc(-c2nc(NC(P(=O)(O)O)P(=O)(O)O)c3ccsc3n2)c1 | 60 | 7.15 | 5.92 | – | –
COc1ccc(NS(=O)(=O)c2cccc(-c3nc(NC(P(=O)(O)O)P(=O)(O)O)c4ccsc4n3)c2)cc1F | 25 | 7.64 | 5.30 | – | –
O=C(Nc1cccc(-c2nc(NC(P(=O)(O)O)P(=O)(O)O)c3ccsc3n2)c1)c1ccccc1 | 40 | 7.72 | < 6.30 | – | –
CO[C@H](C(=O)Nc1cccc(-c2nc(NC(P(=O)(O)O)P(=O)(O)O)c3ccsc3n2)c1)c1ccccc1 | 55 | 7.42 | 6.41 | – | –
O=C(Nc1ccccc1)c1cccc(-c2nc(NC(P(=O)(O)O)P(=O)(O)O)c3ccsc3n2)c1 | – | 7.39 | – | – | –
O=P(O)(O)C(Nc1nc(-c2ccccc2)nc2sccc12)P(=O)(O)O | – | 7.43 | < 5.00 | – | –
COc1ccc(S(=O)(=O)Nc2cccc(-c3nc(NC(P(=O)(O)O)P(=O)(O)O)c4ccsc4n3)c2)cc1F | 40 | 7.62 | 5.33 | – | –
COc1ccc(C(=O)Nc2cccc(-c3nc(NC(P(=O)(O)O)P(=O)(O)O)c4ccsc4n3)c2)cc1F | 60 | 7.54 | 6.34 | – | –
COc1ccc([C@@H](OC(C)C)C(=O)Nc2cccc(-c3nc(NC(P(=O)(O)O)P(=O)(O)O)c4ccsc4n3)c2)cc1F | – | 7.70 | < 5.30 | 6.14 | –
O=C(Cc1ccccc1)Nc1cccc(-c2nc(NC(P(=O)(O)O)P(=O)(O)O)c3ccsc3n2)c1 | 55 | 7.64 | 6.13 | – | –
COc1ccc([C@H](OC(C)C)C(=O)Nc2cccc(-c3nc(NC(P(=O)(O)O)P(=O)(O)O)c4ccsc4n3)c2)cc1F | – | 7.77 | 6.06 | 6.34 | –
CO[C@@H](C(=O)Nc1cccc(-c2nc(NC(P(=O)(O)O)P(=O)(O)O)c3ccsc3n2)c1)c1ccccc1 | 48 | 7.41 | 6.04 | – | –
Cc1ccc(NC(=O)c2cccc(-c3nc(NC(P(=O)(O)O)P(=O)(O)O)c4ccsc4n3)c2)cc1F | 28 | 7.51 | 6.89 | – | –
COc1ccc(NC(=O)Nc2cccc(-c3nc(NC(P(=O)(O)O)P(=O)(O)O)c4ccsc4n3)c2)cc1F | – | 7.47 | 5.89 | – | –
CC(C)C[C@H](NC(=O)[C@H](Cc1ccccc1)NC(=O)c1cnccn1)B(O)O [BORTEZOMIB] | – | – | – | – | 40.1
Cc1ccc(S(=O)(=O)Nc2cccc(-c3nc(NC(P(=O)(O)O)P(=O)(O)O)c4ccsc4n3)c2)cc1F | 30 | 7.64 | 5.11 | – | –
COc1ccc(C(=O)Nc2cccc(-c3nc(NC(P(=O)(O)O)P(=O)(O)O)c4ccsc4n3)c2)cc1Br | 40 | 7.44 | < 6.30 | – | –
O=C(Nc1cccc(-c2nc(NC(P(=O)(O)O)P(=O)(O)O)c3ccsc3n2)c1)c1ccc(C(F)(F)F)cc1 | 40 | 7.74 | 6.15 | – | –
Cc1ccc(NC(=O)c2cccc(-c3nc(NC(P(=O)(O)O)P(=O)(O)O)c4ccsc4n3)c2)cc1Br | 12 | 7.82 | 6.79 | – | –
CC(C)C[C@H](NC(=O)[C@H](CCc1ccccc1)NC(=O)CN1CCOCC1)C(=O)N[C@@H](Cc1ccccc1)C(=O)N[C@@H](CC(C)C)C(=O)[C@@]1(C)CO1 [CARFILZOMIB] | – | – | – | – | 43.6
